# US20220339143A1, “TAK-925 FOR USE IN TREATING NARCOLEPSY” (Takeda Pharmaceutical Company Limited, priority 2019, published 2022)
# Assays:
# [1] = CSF PK in healthy subjects (Cohort 4); type: in vivo; settings: human; for concentration at 6 h: cerebrospinal fluid, intravenous, 112 mg, Cohort 4
# Method: Pharmacokinetics: Concentrations of Compound A in plasma, and CSF, and pharmacokinetics parameters.
# Following a single 9-hour IV infusion of 112 mg to healthy adult subjects in Cohort 4, Compound A plasma concentration-time profile was consistent with that observed in Cohort 1. At 6 hours after the start of infusion, mean ratio CSF/plasma concentration of Compound A was estimated to be about 2.8%.
# [2] = test system: patients with NT1; experiment: Epworth Sleepiness Scale (ESS), multiple dose (Cohorts B1, B2); type: in vivo, human; settings: for ESS Change from Baseline, Median / ESS Observed Value, Median: Day 7; for ESS Observed Value, Mean: Day 7 (placebo 16.3); for ESS Change from Baseline, Mean: Day 7 (placebo −0.3)
# Method: (§1) The purpose of the study was to evaluate the safety, tolerability, pharmacokinetics and pharmacodynamics of Compound A after multiple IV administration in patients with NT1. NT1 patients were evaluated in Cohort B1 and B2 (Table 19). Compound A or placebo were administered via IV infusion over 9 hours once daily for 7 days. A total of 13 patients with NT1 were treated with Compound A or placebo (4, 4, and 5 subjects in the placebo, Compound A 11 mg, and Compound A 44 mg groups, respectively). In this part, potential efficacy of Compound A was evaluated with MWT, ESS, KSS, night-time PSG (NPSG), cataplexy frequency assessment, and PGI-C as an exploratory PD assessment.
# [3] = test system: patients with NT1; experiment: Sleep latency in MWT, multiple dose (Cohorts B1, B2); type: in vivo, human
# Method: as §1
# An overview of study schedule and PD testing in NT1 Patients is illustrated in FIG. 11. After screening, patients eligible for these parts had to discontinue any medication for narcolepsy including medications used for EDS or cataplexy. The medications had to be stopped for a minimum of 7 days or at least 5 half-lives of each medication, whichever was longer, before the first day of dosing (Day 1). As for a subject having possibility of getting injured due to severe cataplexy, the subject might have been confined to the site before Day −2 at a discretion of the investigator. In all cohorts of these parts, subjects underwent NPSG on Day −2 and baseline MWT sessions 4 times on Day −1 (at around 10:00, 12:00, 14:00, and 16:00). Study drug dosing via IV infusion was started at around 08:00. MWT was conducted on Day 1 at around 10:00, 12:00, 14:00, and 16:00. Subjects were allowed to take a nap on the days with no MWT assessment. At night of Day 6, the subjects underwent NPSG once again to evaluate the effect of multiple daytime dosing on night-time sleep structure. On Day 7, the subjects underwent MWT at the same hours as on Day −1. Cataplexy was to be evaluated by using the self-recorded sleep diary. The subjects were discharged from the study site on Day 8.
# The MWT is a validated objective measure that evaluates a person's ability to remain awake under soporific conditions for a defined period of time. As there is no biological measure of wakefulness, this was measured indirectly by the inability or delayed tendency to fall asleep. This tendency to fall asleep was measured via EEG-derived sleep latency in MWT.
# On Day −1, Day 1 and Day 7, 40-minute session (1 session) of MWTs was performed 4 times (approximately at 10:00, 12:00, 14:00, and 16:00) per day. Sleep latency of each session was recorded. Subjects were required to stay awake during an interval between sessions.
# [4] = test system: patients with narcolepsy type 1 (NT1); experiment: Number of cataplexy episodes (daily diary), single dose (Cohorts 5, 6, 7); type: in vivo, human; settings: for Number of Events of Cataplexy per Week in one particular patient: cohort 7
# Excerpt: Assessment of cataplexy and other sleep manifestations using a daily diary to collect episodes of cataplexy and sleep symptoms associated with NT1.
# [5] = test system: patients with NT1; experiment: KSS, multiple dose (Cohorts B1, B2); type: in vivo, human; settings: 9 hours postdose
# Method: as §1
structure (smiles),measurement,setting,value
"COC(=O)N1CCC[C@H](NS(C)(=O)=O)[C@@H]1CO[C@H]1CC[C@@H](c2ccccc2)CC1 [Compound A, methyl (2R,3S)-3-((methylsulfonyl)amino)-2-(((cis-4-phenylcyclohexyl)oxy)methyl)piperidine-1-carboxylate]",Kp at 6 h,"[1]; CSF, 112 mg single 9-hour IV infusion, 6 hours after the start of infusion, healthy adults Cohort 4, read-out: mean ratio CSF/plasma concentration",~0.028
same,concentration at 6 h,[1]; Mean,6.73 ng/mL
same,concentration at 6 h,[1]; Median,6.63 ng/mL
same,"ESS Change from Baseline, Median",[2]; 11 mg,−9.5
same,"ESS Observed Value, Median",[2]; 11 mg,8.5
same,"ESS Observed Value, Mean",[2]; 11 mg,9.8
same,"ESS Change from Baseline, Mean",[2]; 11 mg,−8.3
same,"ESS Change from Baseline, Median",[2]; 44 mg,−18.0
same,"ESS Observed Value, Median",[2]; 44 mg,0.0
same,"ESS Observed Value, Mean",[2]; 44 mg,0.0
same,"ESS Change from Baseline, Mean",[2]; 44 mg,−18.6
same,mean sleep latency in MWT,"[3]; 11 mg, Day 1 (placebo 1.31)",37.16 min
same,mean change from baseline in average sleep latency in MWT,"[3]; 11 mg, Day 1 (placebo −0.66)",35.13 min
same,mean sleep latency in MWT,"[3]; 11 mg, Day 7 (placebo 1.59)",23.03 min
same,mean change from baseline in average sleep latency in MWT,"[3]; 11 mg, Day 7 (placebo −0.38)",21.00 min
same,maximum sleep latency achieved in MWT,"[3]; 11 mg, at 4 hours on Day 1",40 min
same,mean sleep latency in MWT,"[3]; 44 mg, Day 1 (placebo 1.31)",40.00 min
same,mean change from baseline in average sleep latency in MWT,"[3]; 44 mg, Day 1 (placebo −0.66)",34.19 min
same,mean sleep latency in MWT,"[3]; 44 mg, Day 7 (placebo 1.59)",40.00 min
same,mean change from baseline in average sleep latency in MWT,"[3]; 44 mg, Day 7 (placebo −0.38)",34.78 min
same,maximum sleep latency achieved in MWT,"[3]; 44 mg, all time points on both Day 1 and Day 7",40 min
same,Subjects without any Events (cataplexy),[4]; 5 mg (N = 6),3 (50.0) N (%)
same,"Number of Times of a Cataplexy Episode, Mean (SD)","[4]; 5 mg, After End of Infusion",10.2 (23.45)
same,"Number of Times of a Cataplexy Episode, Median","[4]; 5 mg, After End of Infusion",0.5
same,"Number of Times of a Cataplexy Episode, Mean (SD)","[4]; 5 mg, During Infusion",0.0 (0.00)
same,"Number of Times of a Cataplexy Episode, Median","[4]; 5 mg, During Infusion",0.0
same,Subjects without any Events (cataplexy),[4]; 11.2 mg (N = 4),3 (75.0) N (%)
same,"Number of Times of a Cataplexy Episode, Mean (SD)","[4]; 11.2 mg, After End of Infusion",0.0 (0.00)
same,"Number of Times of a Cataplexy Episode, Median","[4]; 11.2 mg, After End of Infusion",0.0
same,"Number of Times of a Cataplexy Episode, Mean (SD)","[4]; 11.2 mg, During Infusion",0.8 (1.50)
same,"Number of Times of a Cataplexy Episode, Median","[4]; 11.2 mg, During Infusion",0.0
same,Subjects without any Events (cataplexy),[4]; 44.8 mg (N = 4),3 (75.0) N (%)
same,"Number of Times of a Cataplexy Episode, Mean (SD)","[4]; 44.8 mg, After End of Infusion",0.8 (1.50)
same,"Number of Times of a Cataplexy Episode, Median","[4]; 44.8 mg, After End of Infusion",0.0
same,"Number of Times of a Cataplexy Episode, Mean (SD)","[4]; 44.8 mg, During Infusion",0.0 (0.00)
same,"Number of Times of a Cataplexy Episode, Median","[4]; 44.8 mg, During Infusion",0.0
same,Number of Events of Cataplexy per Week in one particular patient,"[4]; During Cmpd A infusion (baseline 808, during placebo infusion 83)",0
same,Number of Events of Cataplexy per Week in one particular patient,[4]; Post Cmpd A infusion,58
same,frequency of cataplexy compared to baseline frequency in one patient of cohort 7,[4]; during the infusion of Compound A,remarkably improved
same,mean change from baseline in KSS,"[5]; 11 mg, Day 1 (placebo 0.0)",−3.0
same,mean change from baseline in KSS,"[5]; 11 mg, Day 7 (placebo −0.3)",−2.0
same,mean change from baseline in KSS,"[5]; 44 mg, Day 1 (placebo 0.0)",−4.4
same,mean change from baseline in KSS,"[5]; 44 mg, Day 7 (placebo −0.3)",−4.6
